ChEMBL document CHEMBL5543095 (Eur J Med Chem, 2024)

How the values were obtained:
U-87 MG [1] = assay: Antiproliferative activity against human U87 cells assessed as inhibition of cell growth inhibition incubated for 48 hrs by CCK-8 assay; format: functional, cell-based, U-87MG ATCC
[2] = Cytotoxicity against HUVEC cells assessed as inhibition of cell growth inhibition incubated for 48 hrs by CCK-8 assay; format: toxicity, cell-based; conditions: human
A549 = assay: Antiproliferative activity against human A549 cells assessed as inhibition of cell growth inhibition incubated for 48 hrs by CCK-8 assay; format: functional, cell-based; conditions: A549, 48 h
Huh-7 = assay: Antiproliferative activity against human Huh-7 cells assessed as inhibition of cell growth inhibition incubated for 48 hrs by CCK-8 assay; format: functional, cell-based; conditions: Huh-7, 48 h
[3] = Apparent permeability across apical to basolateral side in MDCK-MDR1 cells at 10 uM incubated for 90 mins by LC-MS/MS analysis; format: ADME, cell-based, Canis lupus familiaris; conditions: dog
[4] = Apparent permeability across basolateral to apical side in MDCK-MDR1 cells at 10 uM incubated for 90 mins by LC-MS/MS analysis; format: ADME, cell-based, Canis lupus familiaris; conditions: dog
P-gp = assay: Substrate activity at P-gp in MDCK-MDR1 cells assessed as efflux ratio of apparent permeability across basolateral to apical side over apical to basolateral side at 10 uM incubated for 90 mins by LC-MS/MS analysis; format: ADME, cell-based, Canis lupus familiaris; conditions: dog
[5] = Toxicity in C57BL/6 mouse implanted with mouse GL261-Luc cells assessed as reduction in body weight at 5 to 10 mg/kg, iv administered every other day on day 0,2,4,6,8,10 and measured after 12 days; format: organism-based; conditions: in vivo, 288 h, dose 5-10 mg/kg, time 12 day
[6] = Toxicity in C57BL/6 mouse implanted with mouse GL261-Luc cells assessed as reduction in body weight at 5 mg/kg, iv administered every other day on day 0,2,4,6,8,10 and measured after 12 days; format: organism-based; conditions: in vivo, 288 h, time 12 day
U-87 MG [7] = assay: Induction of cell cycle arrest in human U87 cells assessed as accumulation of cells at G1 phase at 25 nM measured after 48 hrs by PI staining based flow cytometry analysis (reference value: 72.6%); format: functional, U-87MG ATCC
U-87 MG [8] = assay: Induction of cell cycle arrest in human U87 cells assessed as accumulation of cells at […] at 25 nM measured after 48 hrs by PI staining based flow cytometry analysis (reference value: 8.55%); format: functional, U-87MG ATCC

Row | IC50 (U-87 MG [1]) | IC50 (A549) | IC50 (Huh-7) | Papp A→B at 1.5 h, 10 µM [3] | Papp B→A at 1.5 h, 10 µM [4] | efflux ratio at 1.5 h, 10 µM (P-gp) | SMILES | IC50 at 48 h [2] | Activity [5] | Activity [6] | Activity (U-87 MG [7]) | Activity (U-87 MG [8])
1 | 6.18 µM | 4.95 µM | 2.35 µM | – | – | – | N#CC1=C(N)Oc2c(ccc3cccnc23)C1c1ccc(Cl)c(Cl)c1 (centres undefined) | 8.23 µM | – | – | – | –
2 | > 10 µM | > 10 µM | 2.47 µM | – | – | – | N#CC1=C(N)Oc2c(ccc3cccnc23)C1c1ccccc1 (centres undefined) | > 10 µM | – | – | – | –
3 | > 10 µM | > 10 µM | > 10 µM | – | – | – | N#CC1=C(N)Oc2c(ccc3cccnc23)C1c1ccc(Cl)cc1 (centres undefined) | > 10 µM | – | – | – | –
4 | 7.87 µM | 3.25 µM | 2 µM | – | – | – | Cc1ccc2ccc3c(c2n1)OC(N)=C(C#N)C3c1ccc(F)cc1 (centres undefined) | 7.58 µM | – | – | – | –
5 | > 10 µM | > 10 µM | > 10 µM | – | – | – | CC(C)c1ccc(C2C(C#N)=C(N)Oc3c2ccc2cccnc32)cc1 (centres undefined) | > 10 µM | – | – | – | –
6 | > 10 µM | > 10 µM | > 10 µM | – | – | – | N#CC1=C(N)Oc2c(ccc3cccnc23)C1c1ccc(F)cc1 (centres undefined) | > 10 µM | – | – | – | –
7 | > 10 µM | > 10 µM | 4.57 µM | – | – | – | N#CC1=C(N)Oc2c(cc(Cl)c3cccnc23)C1c1ccc(Cl)cc1 (centres undefined) | 7.65 µM | – | – | – | –
8 | 2.87 µM | 1.59 µM | 2.6 µM | – | – | – | COc1cc(C2C(C#N)=C(N)Oc3c2ccc2ccc(C)nc32)cc(OC)c1Br (centres undefined) | > 10 µM | – | – | – | –
9 | > 10 µM | > 10 µM | 2.95 µM | – | – | – | COc1ccc(C2C(C#N)=C(N)Oc3c2ccc2cccnc32)cc1OC (centres undefined) | > 10 µM | – | – | – | –
10 | > 10 µM | > 10 µM | > 10 µM | – | – | – | N#CC1=C(N)Oc2c(cc(Cl)c3cccnc23)C1c1ccc(F)cc1 (centres undefined) | > 10 µM | – | – | – | –
11 | > 10 µM | > 10 µM | > 10 µM | – | – | – | Cc1ccc(C2C(C#N)=C(N)Oc3c2ccc2cccnc32)cc1 (centres undefined) | > 10 µM | – | – | – | –
12 | > 10 µM | > 10 µM | > 10 µM | – | – | – | N#CC1=C(N)Oc2c(cc(Cl)c3cccnc23)C1c1ccc(Br)cc1 (centres undefined) | > 10 µM | – | – | – | –
13 | 4.68 µM | 8.13 µM | 4.64 µM | – | – | – | COc1cc(OC)c(C2C(C#N)=C(N)Oc3c2ccc2ccc(C)nc32)cc1OC (centres undefined) | 7.87 µM | – | – | – | –
14 | > 10 µM | > 10 µM | > 10 µM | – | – | – | COc1ccc(C2C(C#N)=C(N)Oc3c2cc(Cl)c2cccnc32)cc1OC (centres undefined) | > 10 µM | – | – | – | –
15 | > 10 µM | > 10 µM | > 10 µM | – | – | – | Cc1ccc(C2C(C#N)=C(N)Oc3c2cc(Cl)c2cccnc32)cc1 (centres undefined) | > 10 µM | – | – | – | –
16 | – | – | – | 0.49 ×10⁻⁶ cm/s | 18 ×10⁻⁶ cm/s | 36.9 | C[C@H]1O[C@@H](O[C@H]2[C@@H](O)C[C@H](O[C@H]3[C@@H](O)C[C@H](O[C@H]4CC[C@@]5(C)[C@H](CC[C@@H]6[C@@H]5C[C@@H](O)[C@]5(C)[C@@H](C7=CC(=O)OC7)CC[C@]65O)C4)O[C@@H]3C)O[C@@H]2C)C[C@H](O)[C@@H]1O [DIGOXIN] | – | – | – | – | –
17 | 4.13 µM | 6.42 µM | 2.14 µM | – | – | – | N#CC1=C(N)Oc2c(cc(Cl)c3cccnc23)C1c1ccc(Cl)c(Cl)c1 (centres undefined) | > 10 µM | – | – | – | –
18 | 4.28 µM | 4.57 µM | 6.34 µM | – | – | – | Cc1ccc2ccc3c(c2n1)OC(N)=C(C#N)C3c1ccc(C(C)C)cc1 (centres undefined) | > 10 µM | – | – | – | –
19 | > 10 µM | 8.12 µM | > 10 µM | – | – | – | Cc1ccc2ccc3c(c2n1)OC(N)=C(C#N)C3c1ccc(Br)cc1 (centres undefined) | > 10 µM | – | – | – | –
20 | > 10 µM | > 10 µM | > 10 µM | – | – | – | N#CC1=C(N)Oc2c(ccc3cccnc23)C1c1ccc(Br)cc1 (centres undefined) | > 10 µM | – | – | – | –

The next lines start with the molecule.

Row | SMILES | IC50 (U-87 MG [1]) | IC50 (A549) | IC50 (Huh-7) | Papp A→B at 1.5 h, 10 µM [3] | Papp B→A at 1.5 h, 10 µM [4] | efflux ratio at 1.5 h, 10 µM (P-gp) | IC50 at 48 h [2] | Activity [5] | Activity [6] | Activity (U-87 MG [7]) | Activity (U-87 MG [8])
21 | Cc1ccc2ccc3c(c2n1)OC(N)=C(C#N)C3c1cccc(Cl)c1Cl (centres undefined) | 3.69 µM | > 10 µM | 2.22 µM | – | – | – | > 10 µM | – | – | – | –
22 | N#CC1=C(N)Oc2c(cc(Cl)c3cccnc23)C1c1ccccc1 (centres undefined) | 4.38 µM | 9.66 µM | 0.3 µM | – | – | – | > 10 µM | – | – | – | –
23 | CC[C@@]1(O)C(=O)OCc2c1cc1n(c2=O)Cc2cc3cc(O)ccc3nc2-1 [HYDROXYCAMPTOTHECIN] | 2.92 µM | 0.12 µM | 1.35 µM | – | – | – | 0.92 µM | – | – | – | –
24 | COc1ccc(C2C(C#N)=C(N)Oc3c2cc(Cl)c2cccnc32)c(OC)c1OC (centres undefined) | > 10 µM | > 10 µM | > 10 µM | – | – | – | > 10 µM | – | – | – | –
25 | Cc1ccc(C2C(C#N)=C(N)Oc3c2ccc2ccc(C)nc32)cc1 (centres undefined) | 6.12 µM | 3.05 µM | 5.51 µM | – | – | – | 9.02 µM | – | – | – | –
26 | Cn1nnc2c(C(N)=O)ncn2c1=O [TEMOZOLOMIDE] | – | – | – | 30.6 ×10⁻⁶ cm/s | 31.8 ×10⁻⁶ cm/s | 1.04 | – | Non-Toxic | Non-Toxic | – | –
27 | Cc1ccc2ccc3c(c2n1)OC(N)=C(C#N)C3c1ccc(Cl)cc1 (centres undefined) | 8.08 µM | > 10 µM | 5.31 µM | – | – | – | > 10 µM | – | – | – | –
28 | COc1ccc(C2C(C#N)=C(N)Oc3c2ccc2cccnc32)c(OC)c1OC (centres undefined) | > 10 µM | > 10 µM | > 10 µM | – | – | – | > 10 µM | – | – | – | –
29 | CCc1ccc(C2C(C#N)=C(N)Oc3c2ccc2ccc(C)nc32)cc1 (centres undefined) | 5.93 µM | 2.44 µM | 3.46 µM | – | – | – | > 10 µM | – | – | – | –
30 | COc1ccc(C2C(C#N)=C(N)Oc3c2ccc2ccc(C)nc32)cc1OC (centres undefined) | 4.85 µM | > 10 µM | > 10 µM | – | – | – | > 10 µM | – | – | – | –
31 | CC(C)c1ccc(C2C(C#N)=C(N)Oc3c2cc(Cl)c2cccnc32)cc1 (centres undefined) | > 10 µM | > 10 µM | > 10 µM | – | – | – | > 10 µM | – | – | – | –
32 | Cc1ccc2ccc3c(c2n1)OC(N)=C(C#N)C3c1ccc(Cl)c(Cl)c1 (centres undefined) | 1.98 µM | 1.24 µM | 1.25 µM | – | – | – | 8.17 µM | – | – | – | –
33 | COc1cc2c(c(OC)c1OC)-c1ccc(OC)c(=O)cc1[C@@H](NC(C)=O)CC2 [COLCHICINE] | – | – | – | – | – | – | – | – | – | 19.7% | 46.5%
34 | COc1ccc(C2C(C#N)=C(N)Oc3c2ccc2ccc(C)nc32)c(OC)c1OC (centres undefined) | 5.27 µM | 6.16 µM | 4.89 µM | – | – | – | > 10 µM | – | – | – | –
